Columns and labels:
[1] = biological target: T1, HSP27 (Homo sapiens, UniProt P04792); test: Spectrophotometric protein aggregation assay (citrate synthase heat denaturation, HSP27 chaperone function); format: biochemical; conditions: 43° C., 500 nm
Protocol: FIG. 1: a spectrophotometric protein aggregation assay at 43° C., a wavelength of 500 nm and a concentrations of the proteins: 1.44 μmol/L citrate synthase (CS), 481 nmol/L HSP27 (HSP) in a 40 mmol/L HEPES buffer (pH 7.4) during treatment with 14 or 28 μmol/L 2-(3-trichlorovinylphenylamino)-1,9-dihydropurin-6-one (CS+HSP+test substance no. 2), with 750 μmol/L BVDU (CS+HSP+BVDU) and without (CS+HSP; reference);
A known client protein (=substrate on which HSP27 acts as a chaperone) of HSP27 is citrate synthase. Citrate synthase is denatured when the temperature increases to 43° C. This heat denaturation is prevented or delayed by the presence of HSP27 [Jakob U, 1993]. By adding the novel active ingredients, their efficacy can thus be measured through the inhibition of the HSP27 chaperone function.
To determine the activity (i.e. the effect on the aggregation behaviour of the citrate synthase (CS) after thermal incubation) of 2-(3-trichlorovinylphenylamino)-1,9-dihydropurin-6-one in comparison to BVDU, four different batches containing 1.44 μmol/L CS, 481 nmol/L HSP27 (HSP) in a 40 mmol/L HEPES buffer (pH 7.4) were prepared and BVDU (750 μmol/L) or various concentrations of 2-(3-trichlorovinylphenylamino)-1,9-dihydropurin-6-one (14 μmol/L; 28 μmol/L) were added. The samples were then incubated at 43° C. and the aggregation behaviour of the CS was monitored in a spectrometer (PerkinElmer LS55, PerkinElmer Inc.) at a wavelength of 500 nm.
It can be seen from FIG. 1 that the protein citrate synthase (graph CS alone) is denatured by increasing the temperature to 43° C. and forms aggregates. The aggregation is measured in the spectrometer at 500 nm (light scattering by protein aggregates). The presence of HSP27 (HSP) counteracts the aggregation (cf. graph, CS+HSP). Since the addition of the test substances (BVDU and 2-(3-trichlorovinylphenylamino)-1,9-dihydropurin-6-one) inhibits the chaperone function of HSP27, the activity of the respective test substance can be determined by measuring the aggregation behaviour of the CS.

[2] = biological target: T1, HSP27; test: Capillary electrophoresis of the CS protein precipitates (precipitated citrate synthase as measure of HSP27 inhibition); format: biochemical
Protocol: (§1) Since the heat-denatured protein aggregates of the citrate synthase from Example 1 are not water-soluble, these can be separated completely from the supernatant by means of centrifugation at room temperature at 16,000×g, 10 min. By using capillary electrophoresis, the compositions of the separated precipitates can be shown and quantified. The relative quantity of protein of precipitated citrate synthase serves as a measure of the efficacy of the test substances.
(§2) In each case, 481 nmol/L HSP27 and 1.44 μmol/L citrate synthase in 40 mmol/L HEPES buffer, pH 7.4, were employed. The relative quantity of protein of the precipitated citrate synthase in each case was normalized using a defined quantity of BSA as internal standard. The relative quantity of protein that precipitated when using 750 μmol/L BVDU was set at 1. The other test substances (2 representatives of phenothiazine derivatives of general formula (V), 2 representatives of purine derivatives of formula (I) or (II)) were each employed at a concentration of 10 μmol/L.
as §1, with “Example 2” for “Example 1”
as §2, with “nM” for “nmol/L”, “thymine” for “purine”, “were” for “were each”, “μmol/L in each case.” for “μmol/L.”
Otherwise, the experiments were performed as described above: […]

[3] = cited from earlier work
[4] = tested on: RPMI-8226 cells; test: Development of resistance to bortezomib in RPMI-8226 cells; format: cell-based; conditions: bortezomib 0.1-0.3 ng/ml, plus 1 μM inhibitor
Protocol: The cell line RPMI-8226 (DMSZ 402) is a “multiple myeloma” cell line and was chosen because bortezomib is employed as a standard therapy for multiple myeloma. RPMI-8226 cells respond to bortezomib, express HSP27 and develop resistance to Velcade. RPMI-8226 cells were seeded at a cell count of 100,000 cells/ml in each case and regularly passaged. […] In contrast, for RPMI 8226 cells that were treated with 30 μmol/L BVDU, a final cell count of 160,000 cells/ml was detected whereas the final cell count for the culture without the addition of an HSP27 inhibitor amounted to 350,000 cells/ml. As a control, RPMI 8226 cells were treated with the respective test substances alone, FIG. 4b.

T1 sequence (P04792 whole entry): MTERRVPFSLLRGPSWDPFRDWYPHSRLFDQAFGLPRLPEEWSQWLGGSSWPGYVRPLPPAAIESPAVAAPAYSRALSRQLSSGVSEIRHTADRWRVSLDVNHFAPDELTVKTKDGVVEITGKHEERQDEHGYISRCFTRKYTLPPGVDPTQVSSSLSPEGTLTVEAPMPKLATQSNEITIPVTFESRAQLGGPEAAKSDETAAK

Structure (SMILES) | Inhibition of HSP27 chaperone function (CS aggregation) ([1]; 750 μmol/L) | Rel. quantity of protein prec. CS ([2]; 750 μmol/L, 43° C. for 70 minutes, set at 1) | Rel. quantity of protein prec. CS ([2]; 750 μmol/L, 43° C. for 120 minutes, set at 1) | tolerability in patients ([3]; increased administered dose of 760 mg/day) | safety and efficacy in patients ([3]; oral, administered dose of 500 mg/day) | Inhibition of HSP27 chaperone function (CS aggregation), effect versus 750 μmol/L BVDU ([1]; 14 μmol/L) | Inhibition of HSP27 chaperone function (CS aggregation), effect versus 750 μmol/L BVDU ([1]; 28 μmol/L) | Rel. quantity of protein prec. CS ([2]; 10 μmol/L, 43° C. for 120 minutes, 750 μmol/L BVDU set at 1) | times higher activity than BVDU for the inhibition of the HSP27 protein ([2]; 10 μmol/L, 120 minutes) | development of resistance to bortezomib [4]
O=c1[nH]c(=O)n([C@H]2C[C@H](O)[C@@H](CO)O2)cc1/C=C/Br [BVDU, (E)-5-(2-bromovinyl)-2′-deoxyuridine, reference compound] | partially cancels the chaperone function of HSP27 | 1 | 1 | proved disadvantageous for low-weight patients | works safely and efficiently | – | – | – | – | –
O=c1[nH]c(Nc2cccc(C(Cl)=C(Cl)Cl)c2)nc2[nH]cnc12 [2-(3-trichlorovinylphenylamino)-1,9-dihydropurin-6-one] | – | – | – | – | – | comparable effect | significantly more pronounced effect | 0.71 | 53 times | significantly inhibited

From patent publication US20170216297A1, “EFFICIENT INHIBITION OF HSP27” (TECHNISCHE UNIVERSITAET DRESDEN, priority 2014, published 2017)
